Measurements taken from patent US9994673B2, “Bisphenol polyether oligomers, methods of manufacture, and polycarbonates made therefrom” (SABIC GLOBAL TECHNOLOGIES B.V, priority 2013, dated 2018).
Entries after “also recorded” stand apart in the source; their conditions may differ.

What was measured:
[1] = molecular target: recombinant human estradiol receptor (rhER) beta 1 (Homo sapiens, UniProt Q92731); test: Competitive estradiol binding assay, displacement of [3H]estradiol, rhER beta 1; settings: up to highest concentration 2.5×E-4 M
[2] = molecular target: T1, recombinant human estradiol receptor (rhER) alpha (Homo sapiens, UniProt P03372); test: Competitive estradiol binding assay, displacement of [3H]estradiol, rhER alpha; settings: up to highest concentration 2.5×E-4 M
T1 sequence (P03372 1-595): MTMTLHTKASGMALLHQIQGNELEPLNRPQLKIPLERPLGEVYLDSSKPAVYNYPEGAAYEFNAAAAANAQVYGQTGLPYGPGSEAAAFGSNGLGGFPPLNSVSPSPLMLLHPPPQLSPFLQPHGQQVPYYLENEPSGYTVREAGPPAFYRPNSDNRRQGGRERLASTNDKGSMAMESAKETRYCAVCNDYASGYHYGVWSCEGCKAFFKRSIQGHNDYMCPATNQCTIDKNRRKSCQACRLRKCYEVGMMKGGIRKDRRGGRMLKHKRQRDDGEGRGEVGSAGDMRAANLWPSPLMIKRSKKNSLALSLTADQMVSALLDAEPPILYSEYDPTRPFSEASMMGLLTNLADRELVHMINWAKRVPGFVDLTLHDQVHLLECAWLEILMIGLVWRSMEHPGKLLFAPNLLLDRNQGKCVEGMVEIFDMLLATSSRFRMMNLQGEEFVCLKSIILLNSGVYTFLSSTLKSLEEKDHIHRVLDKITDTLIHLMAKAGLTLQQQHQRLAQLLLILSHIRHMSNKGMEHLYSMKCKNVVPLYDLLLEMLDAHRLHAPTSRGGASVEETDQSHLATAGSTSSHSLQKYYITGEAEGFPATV

Structure (SMILES)	Binding to rhER beta (in words) ([1]; listed as BPA)	Binding to rhER alpha (in words) ([2]; listed as BPA)	Binding to rhER beta (in words) [1]	Binding to rhER alpha (in words) [2]
CC(C)(c1ccc(O)cc1)c1ccc(O)cc1 [Control B, Bisphenol A]	bind to both receptors; also recorded: very low level of binding	bind to both receptors; also recorded: very low level of binding	–	–
CC(C)(c1ccccc1)c1ccc(O)cc1 [Control C, p-Cumyl Phenol]	–	–	very low level of binding	very low level of binding
CC(C)(c1ccc(O)cc1)c1ccc(OCc2ccc(COc3ccc(C(C)(C)c4ccc(O)cc4)cc3)cc2)cc1 [BPA-X-1, 4,4′-[1,4-Phenylenebis(methyleneoxy-4,1-phenylene(1-methylethylidene))]bisphenol]	–	–	no detectable binding	no detectable binding
